Converted amounts (≈) assume the structure as drawn. “And” between values parts separate entries of the source, which are not always exact repeats. Identical values can stand only once. Counter-ions that a name gives are not always drawn. Like-named read-outs stand apart in the source and are kept apart here.
Legend:
[1] = target: T1, dihydrofolate reductase (Homo sapiens, UniProt P00374); experiment: Inhibition of dihydrofolate reductase (Table 1); format: biochemical
T1 sequence (P00374 1-187): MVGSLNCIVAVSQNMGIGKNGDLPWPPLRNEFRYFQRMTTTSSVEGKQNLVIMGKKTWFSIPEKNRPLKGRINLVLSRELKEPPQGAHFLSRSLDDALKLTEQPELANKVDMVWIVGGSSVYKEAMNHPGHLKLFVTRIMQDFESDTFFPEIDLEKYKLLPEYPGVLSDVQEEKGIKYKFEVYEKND

[2] = system: P388 leukemia; experiment: In vivo P388 leukemia life span study; design: species or system CD2F1 mice; details: maximum tolerated dose, i.p. Days 3-11 (Adriamycin Days 3, 7, 11); >130 = antitumor effect
[3] = system: P388/ADR cells; experiment: In vitro growth inhibition of P388/ADR cells; format: cell-based, murine; details: for IC50: Mus musculus, P388/ADR; for R/S: ratio resistant (P388/ADR) to sensitive (P388S) IC50
[4] = system: P388S cells; experiment: In vitro growth inhibition of P388S cells; format: cell-based; details: for IC50: Mus musculus, P388/S, read-out: P388S IC50
[5] = system: P388/ADR leukemia; experiment: In vivo P388/ADR leukemia life span study; design: species or system CD2F1 mice; details: for P388/ADR T/C: maximum tolerated dose, i.p. Days 3-11 (Adriamycin Days 3, 7, 11), >130 = antitumor effect
[6] = system: Colon 26/clone 10 (C26/10); experiment: Colon 26/clone 10 i.p. life span study; format: in vivo, CD2F1 mice; details: for C26 ip T/C: i.p. implant, treated i.p. Days 3-7 and 10-14 (Adriamycin Days 5, 9, 13), >130 = antitumor effect
Description: (§1) To test compounds of the present invention in vivo, the following methodology was used. P388 leukemia and its Adriamycin resistant subline, P388/ADR were passed weekly in DBA/2 mice as i.p. implants of 10^5 and 10^6 cells, respectively. Animals bearing P388/ADR passage were treated with 7 mg/kg Adriamycin on Day 3 post-implant as a resistance selection pressure. C26/clone 10 was passed every 2 weeks into Balb/c mice as tumor fragments (approximately 30 mg) which were obtained from tumors 1 g in mass.
Colon 26/clone 10 (C26/10) life span studies were conducted in CD2F1 mice. C26/C10 cells were implanted i.p. on Day 0. Animals were treated i.p. with test agents in the vehicles described above on Days 3-7 and 10-14. Adriamycin was dosed i.p. in saline on Days 5, 9, and 13. […] Percent T/C values in excess of 130 are indicative of an antitumor effect in this model.

[7] = system: P388/ADR cells; experiment: Combination of antifolates with FU and LV on P388/ADR proliferation; format: cell-based, murine; details: P388/ADR; for Antifol + FU / Antifol + LV / Antifol + LV + FU: antifolate 1 nM 24 hours; for Antifol + FU / Antifol + LV + FU: 5 μM FU final 4 hours; for Antifol + LV / Antifol + LV + FU: LV 10 μM final 4.5 hours; for Antifol: antifolate 1 nM, 24 hours
[8] = system: P388 murine leukemia cells; experiment: Combination of antifolates with FU and LV on P388 proliferation; format: cell-based; details: for Antifol + FU / Antifol + LV / Antifol + LV + FU: antifolate 1.0 nM 24 hours; for Antifol + FU / Antifol + LV + FU: 5 μM FU final 4 hours; for Antifol + LV / Antifol + LV + FU: LV 10 μM final 4.5 hours; for Antifol: antifolate 1.0 nM, 24 hours
[9] = system: HT29 human colon adenocarcinoma cells
[10] = system: C26/10 tumor; experiment: C26/10 s.c. tumor growth delay study; format: in vivo, CD2F1 mice; details: tumor growth delay to 750 mg, s.c. implant, treated i.p. Days 3-7 and 10-14; >5 to 6 days = antitumor effect
Description: as §1
For the tumor growth delay studies with C26/10, CD2F1 mice were implanted s.c. with 30 mg tumor fragments in the region of the right axilla with the aid of a trocar on Day 0. Animals were treated i.p. with test agents in the vehicles described above on Days 3-7 and 10-14. Adriamycin was dosed i.p. in saline on Days 5, 9, and 13. Tumors in the treated and control groups were measured twice weekly in two perpendicular dimensions and tumor mass calculated according to the formula: mass (mg)=(a×b^2)/2 where “b” is the smallest tumor dimension and “a” is the largest. Calculations of tumor growth delay, defined as the median time (in days) for the treated tumors to reach 750 mg in size minus the median time (in days) for the control tumors to reach 750 mg in size, were as described previously (Schabel, 1977; Leopold, 1985; Elliot, 1984). Growth delays in excess of 5 to 6 days in the C26/10 model are considered to be an antitumor effect.

[11] = system: HT29 human colon adenocarcinoma cells; experiment: Combination of antifolates with FU and LV on HT-29 proliferation (sulphorhodamine B); details: for Antifol + LV: antifolate 62.5 nM 24 hours, LV 10 μM final 4.5 hours; for Antifol: antifolate 62.5 nM, 24 hours
[12] = system: C26 murine colon tumor cells; experiment: Combination of antifolates with FU and LV on C26 proliferation; format: cell-based; details: C26; 5 μM FU alone, 4 hours

## Cc1nc(N)nc(N)c1N1CCN(c2ccc(CNC(CCC(=O)O)C(=O)O)cc2)CC1 (stereo not shown) [A]
[1]; read-out: Ki
  Ki: 0.053 nM

## COc1cccc2c1C(=O)c1c(O)c3c(c(O)c1C2=O)C[C@@](O)(C(=O)CO)C[C@@H]3O[C@H]1C[C@H](N)[C@H](O)[C@H](C)O1 [Adriamycin, reference compound]
[2]
  P388S T/C: 250%
[3]; in vitro
  IC50: 3.9 µg/mL (≈ 7.18 µM)
[3]
  R/S: 52
[4]; in vitro
  IC50: 0.075 µg/mL (≈ 0.138 µM)
[5]; in words
  activity against P388/ADR tumors in vivo: inactive
[5]
  P388/ADR T/C: 108%
[6]
  C26 ip T/C: 180%

## Cc1nc(N)nc(N)c1N1CCN(c2ccc(C(=O)O)cc2)CC1 [B, 4-[4-(2,4-Diamino-6-methyl-pyrimidin-5-yl)-piperzain-1-yl]-benzoic acid]
[1]
  Ki: 0.201 nM
[7]
  Antifol + FU: 30% of control
  Antifol + LV: 70% of control
  Antifol + LV + FU: 28% of control
  Antifol: 62% of control

## CCOC(=O)CCC(NC(=O)c1ccc(N2CCN(c3c(N)nc(N)nc3CC)CC2)cc1)C(=O)OCC (stereo not shown) [C, 2-{4-[4-(2,4-Diamino-6-ethyl-pyrimidin-5-yl)-pierazin-1-yl]-benzoylamino}pentanedioic acid diethyl ester]
[1]
  Ki: 0.109 nM
[7]
  Antifol + FU: 40% of control
  Antifol + LV: 80% of control
  Antifol + LV + FU: 30% of control
  Antifol: 88% of control

## Cc1nc(N)nc(N)c1-c1ncncc1-c1ccc(C(=O)O)cc1 [Compound F, 4-[4-(2,4-Diamino-6-methyl-pyrimidin-5-yl)-pyrimidin-5-yl]-benzoic acid]
[2]
  P388S T/C: 260%
[3]; in vitro
  IC50: 0.04 µg/mL (≈ 0.124 µM)
[3]
  R/S: 1.1
[4]; in vitro
  IC50: 0.033 µg/mL (≈ 0.102 µM)

## CC(=O)c1ccc(N2CCN(c3c(C)nc(N)nc3N)CC2)cc1 [D, 1-{4-[4-(2,4-Diamino-6-methyl-pyrimidin-5-yl)-piperazin-1-yl]-phenyl}-ethanone]
[8]
  Antifol + FU: 10% of control
  Antifol + LV: 110% of control
  Antifol + LV + FU: 5% of control
  Antifol: 70% of control
[1]
  Ki: 0.131 nM
[2]
  P388S T/C: 182%
[9]
  Antifol + FU: 50% of control
  Antifol + LV + FU: 42% of control
[10]
  C26 sc T-C: 17.3 days
[11]
  Antifol + LV: 90% of control
  Antifol: 92% of control
[3]; in vitro
  IC50: 0.01 µg/mL (≈ 0.0306 µM)
[3]
  R/S: 1
[4]; in vitro
  IC50: 0.01 µg/mL (≈ 0.0306 µM)
[5]
  P388/ADR T/C: 180%
[6]
  C26 ip T/C: 171%

## Cc1nc(N)nc(N)c1N1CCN(c2ccc(S(C)(=O)=O)cc2)CC1 [E]
[1]
  Ki: 0.138 nM

## Cc1nc(N)nc(N)c1N1CCN(c2ccc(C=O)cc2)CC1 [Example 1]
[1]
  Ki: 0.073 nM
[2]
  P388S T/C: 190%
[10]
  C26 sc T-C: 7.6 days
[3]; in vitro
  IC50: 0.0068 µg/mL (≈ 0.0218 µM)
[3]
  R/S: 1.1
[4]; in vitro
  IC50: 0.005 µg/mL (≈ 0.016 µM)
[5]
  P388/ADR T/C: 169%
[6]
  C26 ip T/C: 263%
[6]; in words, T/C×100>130 represents in vivo antitumor activity
  activity against C26 colon tumor in vivo: curative

## Cc1nc(N)nc(N)c1N1CCN(c2ccc(C(=O)NN)cc2)CC1 [Example 11, 4-[4-(2,4-Diamino-6-methyl-5-pyrinidinyl)-1-piperazinyl]benzoic acid, hydrazide]
[2]
  P388S T/C: 195%
[9]
  Antifol + FU: 42% of control
  Antifol + LV + FU: 33% of control
[11]
  Antifol + LV: 80% of control
  Antifol: 87% of control
[7]
  Antifol + FU: 48% of control
  Antifol + LV: 80% of control
  Antifol + LV + FU: 16% of control
  Antifol: 77% of control
[3]; in vitro
  IC50: 0.0161 µg/mL (≈ 0.047 µM)
[3]
  R/S: 1.5
[4]; in vitro
  IC50: 0.0105 µg/mL (≈ 0.0307 µM)
[5]
  P388/ADR T/C: 161%
[6]
  C26 ip T/C: 164%

## Cc1nc(N)nc(N)c1N1CCN(c2ccc(/C=N/OCCN)cc2)CC1 [Example 12, 4-[4-(2,4-Diamino-6-methyl-pyrimidin-5-yl)-piperazin-1-yl]-benzaldehyde O-(2-amino-ethyl)-oxime, dihydrochloride]
[8]
  Antifol + FU: 20% of control
  Antifol + LV: 97% of control
  Antifol + LV + FU: 16% of control
  Antifol: 100% of control
[9]
  Antifol + FU: 35% of control
  Antifol + LV + FU: 27% of control
[10]
  C26 sc T-C: 5.2 days
[11]
  Antifol + LV: 67% of control
  Antifol: 52% of control
[7]
  Antifol + FU: 30% of control
  Antifol + LV: 65% of control
  Antifol + LV + FU: 25% of control
  Antifol: 65% of control
[3]; in vitro
  IC50: 0.0117 µg/mL
[3]
  R/S: 1.1
[4]
  IC50: 0.011 µg/mL

## Cc1nc(N)nc(N)c1N1CCN(c2ccc(C(=O)N(C)N)cc2)CC1 [Example 13, 4-[4-(2,4-Diamino-6-methyl-5-pryimidinyl)-1-piperazinyl]benzoic acid, 1-methylhydrazide]
[8]
  Antifol + FU: 10% of control
  Antifol + LV: 85% of control
  Antifol + LV + FU: 7% of control
  Antifol: 85% of control

## O=c1[nH]cc(F)c(=O)[nH]1 [FU, 5-fluorouracil, reference compound]
[8]; 5 μM FU alone, 4 hours
  FU: 90% of control and 90* percent of control
[7]; 5 μM FU alone, 4 hours
  FU: 90% of control and 90* percent of control
[12]
  FU: 72% of Control

## Nc1ncc(N2CCN(c3ccc(C(=O)O)cc3)CC2)c(N)n1 [G]
[2]
  P388S T/C: 220%
[10]
  C26 sc T-C: 4.9 days
[3]; in vitro
  P388/ADR IC50: 0.074 µg/mL
[3]
  R/S: 0.98
[4]; in vitro
  P388S IC50: 0.076 µg/mL
[5]
  P388/ADR T/C: 245%
[6]
  C26 ip T/C: 202%

## CC(=O)c1ccc(N2CCN(c3c(C)nc(N)nc3N)CC2)cc1F [H, 1-{4-[4-(2,4-Diamino-6-methyl-pyrimidin-5-yl)-piperazin-1-yl]-2-fluoro-phenyl}-ethanone]
[8]
  Antifol + FU: 20% of control
  Antifol + LV: 86% of control
  Antifol + LV + FU: 15% of control
  Antifol: 82% of control
[2]
  P388S T/C: 170%
[9]
  Antifol + FU: 52% of control
  Antifol + LV + FU: 40% of control
[10]
  C26 sc T-C: 9.4 days
[11]
  Antifol + LV: 77% of control
  Antifol: 74% of control
[3]; in vitro
  IC50: 0.029 µg/mL (≈ 0.0842 µM)
[3]
  R/S: 1.1
[4]; in vitro
  IC50: 0.0026 µg/mL (≈ 0.00755 µM)
[6]
  C26 ip T/C: 169%

— US20040006042A1, “Diaminopyrimidines and combination therapies effective for treatment of P-glycoprotein positive cancers” (priority 1998, published 2004)
